In patent US20260166159A1, “KRAS G12D DEGRADATION AGENT, AND PREPARATION METHOD AND USE THEREFOR” (LEADINGTAC PHARMACEUTICAL (SHAOXING) CO., LTD., priority 2022, published 2026):

Columns and labels:
KRAS-G12D = biological target: T1, KRAS-G12D (Homo sapiens, UniProt P01116, G12D); assay: KRAS-G12D degradation assay (Western Blot), A-427 cells; type: cell-based; settings: A427 cells, 24 h, class symbols; for Dmax: A-427
T1 construct: endogenous in cells; host or cells: A-427 (ATCC), AGS, AsPc-1, Panc 04.03
Outline: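 Western blotting of lysates (5 μg protein) quantified KRAS against a β-actin reference after 24 h exposure to compound at final 0.03–3000 nM in 0.25% DMSO. Cells were A-427, AGS, AsPc-1 or Panc 04.03, all KRAS G12D, at 5×10^5/well. Degradation versus control yielded DC50 and Dmax.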

[1] = biological target: T2, Human KRAS G12D 6His-tagged (Homo sapiens, UniProt P01116, G12D); assay: KRAS-G12D/GTP binding assay (HTRF)
T2 construct: purchased PerkinElmer
Procedure: In this method, the inhibitory effects of the compounds on the binding of KRAS-G12D to GTP were assayed by a homogeneous time-resolved fluorescence (HTRF) technique using a KRAS-G12D/GTP binding assay kit (PerkinElmer).
The experimental procedures were as follows (refer to the kit instructions for detailed test methods): the compounds of the present disclosure were each firstly dissolved in DMSO at a concentration of 20 mM, and then diluted in an equal gradient with a buffer in the kit, so that the final concentrations of the test compounds in the reaction system were in a range of 0.02-5000 nM, and the final concentration of DMSO was 0.5%. 5 μL of each compound was incubated with 5 μL of 1× Human KRAS G12D 6His-tagged (PerkinElmer), 5 μL of 1×6His Eu Cryptate Antibody (PerkinElmer), and 5 μL of 1×GTP Red reagent (PerkinElmer) in a 384-well plate (Greiner) at 25° C. for 1 h. After the incubation was completed, the fluorescence intensity of each well was measured at the excitation wavelength of 337 nm and the emission wavelengths of 620 nm and 665 nm with an EnVision microplate reader (PerkinElmer) in the HTRF mode, and Ratio values were calculated using the formula: Ratio=(665 nm/620 nm)×[…]. The inhibition rates of the compounds at each concentration were calculated by comparing the fluorescence intensity ratio with that of the control group. Then non-linear curve fittings for logarithmic concentration-inhibition rate were performed using the GraphPad Prism 8 analysis software, and the IC50 values of the compounds were obtained (Table 2).

[2] = system: KRAS G12D mutant human gastric cancer cell AGS; assay: 3D cell proliferation inhibition assay, AGS; type: cell-based; settings: 168 h, 7 days, CTG, class symbols
Outline: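 3D growth, low-adsorption plate; 5×10^2 cells/well; cpd 10000–0.026 nM final, 0.2% DMSO; 7 d, 37 °C/5% CO2. CTG luminescence, 60 min RT. % inhibition vs DMSO (cells) and medium blanks; IC50 by nonlinear fit.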

[3] = system: KRAS G12D mutant human lung cancer cell A427; assay: 3D cell proliferation inhibition assay, A427; type: cell-based; settings: A-427, 168 h, A427, 7 days, CTG, class symbols
Text: (§1) The inhibitory effects of the compounds on 3D cell proliferation were investigated on KRAS G12D mutant human lung cancer cell A427, KRAS G12D mutant human gastric cancer cell AGS, KRAS G12D mutant human metastatic pancreatic cancer cell AsPc-1, KRAS G12D mutant human pancreatic cancer cell Panc 04.03, KRAS G12D mutant human pancreatic cancer cell HPAC, KRAS G12V mutant human lung squamous cell carcinoma cell SW900, and KRAS WT human gastric cancer cell MKN1. The specific procedures were as follows:
(§2) 10 μL of each compound solution diluted in a gradient was added to corresponding wells of a 96-well low-adsorption microplate (PerkinElmer), so that the final concentrations of the test compounds in the reaction system were in a range of 10000-0.026 nM. The final concentration of DMSO was 0.2%. Then 90 µL of cells were correspondingly seeded into each well to achieve a cell density of 5×10^2 cells/well (the cell density of SW900 was 5×10^1 cells/well, and the cell density of MKN1 was 1×10^3 cells/well). In addition to test wells for the test compounds, both a DMSO control well and a medium control well were set, with the DMSO control well containing DMSO and cells and the medium well containing only a medium. After the sample loading, the 96-well low-adsorption microplate was incubated in an incubator at 37° C. with 5% carbon dioxide for 7 days. After 7 days, the microplate was taken out, and 100 μL of CTG reagent (Promega) was added to each well. The plate was incubated at room temperature for 60 min and read on a microplate reader EnVision by the chemiluminescence program. The inhibition rates of the compounds at each concentration were calculated using the formula for the percentage inhibition of cell proliferation: inhibition rate %=(mean value of DMSO control group−single concentration reading value of compound)/(mean value of DMSO control group−mean value of medium control group)×100. Then non-linear curve fittings for logarithmic concentration-inhibition rate were performed by GraphPad Prism 8, and the IC50 values of the compounds were obtained (Table 5).

[4] = system: KRAS G12D mutant human metastatic pancreatic cancer cell AsPc-1; assay: 3D cell proliferation inhibition assay, AsPc-1; type: cell-based; settings: ASPC1, 168 h, AsPc-1, 7 days, CTG, numeric values
Text: as §1, §2

[5] = system: KRAS G12D mutant human pancreatic cancer cell HPAC; assay: 3D cell proliferation inhibition assay, HPAC; type: cell-based; settings: 168 h, 7 days, CTG
Text: as §1, §2

T2 sequence (P01116 1-188 isoform P01116-2 G12D): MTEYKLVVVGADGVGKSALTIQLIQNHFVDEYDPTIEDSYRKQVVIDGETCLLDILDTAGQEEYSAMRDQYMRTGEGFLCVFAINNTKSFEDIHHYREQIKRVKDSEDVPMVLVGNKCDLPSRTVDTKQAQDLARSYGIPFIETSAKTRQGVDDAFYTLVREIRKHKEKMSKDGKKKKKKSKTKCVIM
T1 sequence (P01116 1-188 isoform P01116-2 G12D): as above

SMILES | DC50 (KRAS-G12D) [nM] | Dmax (KRAS-G12D) [%] | IC50 ([1]; class symbols) [nM] | IC50 [2] [nM] | IC50 [3] [nM] | IC50 ([1]; numeric values) [nM] | IC50 [4] [nM] | IC50 [5] [nM]
C#Cc1c(F)ccc2cc(O)cc(-c3ncc4c(N5CC6CCC(C5)N6)nc(OCC5(CN6CCC(CN7CCC8(CC7)CCN(C(=O)c7ccc(OC)c(N9CCC(=O)NC9=O)c7)CC8)CC6)CC5)nc4c3F)c12 [Example 38, 1-(5-(9-((1-((1-(((4-(3,8-diazabicyclo[3.2.1]octan-3-yl)-7-(8-ethynyl-7-fluoro-3-hydroxynaphthalen-1-yl)-8-fluoropyrido[4,3-d]pyrimidin-2-yl)oxy)methyl)cyclopropyl)methyl)piperidin-4-yl)methyl)-3,9-diazaspiro[5.5]undecane-3-carbonyl)-2-methoxyphenyl)dihydropyrimidine-2,4(1H,3H)-dione] | ≤ 50 | 80 to 100 | ≤ 50 | ≤ 50 | ≤ 50 |  |  | 
C#Cc1c(F)ccc2cc(O)cc(-c3ncc4c(N5CC6CCC(C5)N6)nc(OCC5(CN6CC(CN7CCC8(CC7)CCN(C(=O)c7ccc(OC)c(N9CCC(=O)NC9=O)c7)CC8)C6)CC5)nc4c3F)c12 [Example 40, 1-(5-(9-((1-((1-(((4-(3,8-diazabicyclo[3.2.1]octan-3-yl)-7-(8-ethynyl-7-fluoro-3-hydroxynaphthalen-1-yl)-8-fluoropyrido[4,3-d]pyrimidin-2-yl)oxy)methyl)cyclopropyl)methyl)azetidin-3-yl)methyl)-3,9-diazaspiro[5.5]undecane-3-carbonyl)-2-methoxyphenyl)dihydropyrimidine-2,4(1H,3H)-dione] | 1000 to 10000 | 30 to 50 | ≤ 50 | 100 to 500 | 1000 to 10000 |  |  | 
Cc1ccc(C(=O)N2CCC3(CCC(CN4CCN(CC5(COc6nc(N7CC8CCC(C7)N8)c7cnc(-c8cccc9cccc(Cl)c89)c(F)c7n6)CC5)CC4)CC3)CC2)cc1N1CCC(=O)NC1=O [Example 45, 1-(5-(9-((4-((1-(((4-(3,8-diazabicyclo[3.2.1]octan-3-yl)-7-(8-chloronaphthalen-1-yl)-8-fluoropyrido[4,3-d]pyrimidin-2-yl)oxy)methyl)cyclopropyl)methyl)piperazin-1-yl)methyl)-3-azaspiro[5.5]undecane-3-carbonyl)-2-methylphenyl)dihydropyrimidine-2,4(1H,3H)-dione] | 1000 to 10000 | < 30 | ≤ 50 | 50 to 100 | 50 to 100 |  |  | 
C#Cc1c(F)ccc2cc(O)cc(-c3ncc4c(N5CC6CCC(C5)N6)nc(OCC56CC(CN7CCN(CCC8CCC9(CC8)CCN(C(=O)c8ccc(Cl)c(N%10CCC(=O)NC%10=O)c8)CC9)CC7)(C5)C6)nc4c3F)c12 [Example 56, 1-(5-(9-(2-(4-((3-(((4-(3,8-diazabicyclo[3.2.1]octan-3-yl)-7-(8-ethynyl-7-fluoro-3-hydroxynaphthalen-1-yl)-8-fluoropyrido[4,3-d]pyrimidin-2-yl)oxy)methyl)bicyclo[1.1.1]pentan-1-yl)methyl)piperazin-1-yl)ethyl)-3-azaspiro[5.5]undecane-3-carbonyl)-2-chlorophenyl)dihydropyrimidine-2,4(1H,3H)-dione] | ≤ 50 | 50 to 80 | 50 to 100 | ≤ 50 | 50 to 100 |  |  | 
C#Cc1c(F)ccc2cc(O)cc(-c3ncc4c(N5CC6CCC(C5)N6)nc(OCC5(CN6CC7CC6CN7CC6CCC7(CC6)CCN(C(=O)c6ccc(Cl)c(N8CCC(=O)NC8=O)c6)CC7)CC5)nc4c3F)c12 (stereo not drawn) [Example 59, 1-(5-(9-((5-((1-(((4-(3,8-diazabicyclo[3.2.1]octan-3-yl)-7-(8-ethynyl-7-fluoro-3-hydroxynaphthalen-1-yl)-8-fluoropyrido[4,3-d]pyrimidin-2-yl)oxy)methyl)cyclopropyl)methyl)-2,5-diazabicyclo[2.2.1]heptan-2-yl)methyl)-3-azaspiro[5.5]undecane-3-carbonyl)-2-chlorophenyl)dihydropyrimidine-2,4(1H,3H)-dione] | 1000 to 10000 | < 30 | ≤ 50 | ≤ 50 | 100 to 500 |  |  | 
C#Cc1c(F)ccc2cc(O)cc(-c3ncc4c(N5CC6CCC(C5)N6)nc(OCCN5CCN(CCC6CCC7(CC6)CCN(C(=O)c6ccc(Cl)c(N8CCC(=O)NC8=O)c6)CC7)CC5)nc4c3F)c12 [Example 61, 1-(5-(9-(2-(4-(2-((4-(3,8-diazabicyclo[3.2.1]octan-3-yl)-7-(8-ethynyl-7-fluoro-3-hydroxynaphthalen-1-yl)-8-fluoropyrido[4,3-d]pyrimidin-2-yl)oxy)ethyl)piperazin-1-yl)ethyl)-3-azaspiro[5.5]undecane-3-carbonyl)-2-chlorophenyl)dihydropyrimidine-2,4(1H,3H)-dione] |  |  |  | ≤ 50 | 100 to 500 | 21.1 |  | 
C#Cc1c(F)ccc2cc(O)cc(-c3ncc4c(N5CC6CCC(C5)N6)nc(OCC(CN5CCN(CC6CCC7(CC6)CCN(C(=O)c6ccc(OC)c(N8CCC(=O)NC8=O)c6)CC7)CC5)OC)nc4c3F)c12 (stereo not drawn) [Example 105, 1-(5-(9-((4-(3-((4-(3,8-diazabicyclo[3.2.1]octan-3-yl)-7-(8-ethynyl-7-fluoro-3-hydroxynaphthalen-1-yl)-8-fluoropyrido[4,3-d]pyrimidin-2-yl)oxy)-2-methoxypropyl)piperazin-1-yl)methyl)-3-azaspiro[5.5]undecane-3-carbonyl)-2-methoxyphenyl)dihydropyrimidine-2,4(1H,3H)-dione] |  |  |  |  |  |  | 93.5 | 12.7
